According to US12029739B2, “SHP2 inhibitor and use thereof” (KANAPH THERAPEUTICS INC., priority 2021, dated 2024):
pIC50: −log10 of the molar value. Like-named read-outs stand apart in the source and are kept apart here.

What was measured:
SHP2 (full length) = target: T1, SHP2 (full length) (Homo sapiens, UniProt Q06124); test: Phosphatase assay (PTPase assay) with DiFMUP substrate; type: biochemical; conditions: SHP2 activated with SHP2 activating peptide; DiFMUP 80 μM, 2 hours; fluorescence; read-out: IC50 (PTPase aS say)
T1 construct: SHP2 (full length, diluted to 100 pM final concentration in reaction buffer, BPS bioscience, US); purchased BPS bioscience, US
T1 sequence (Q06124 1-593): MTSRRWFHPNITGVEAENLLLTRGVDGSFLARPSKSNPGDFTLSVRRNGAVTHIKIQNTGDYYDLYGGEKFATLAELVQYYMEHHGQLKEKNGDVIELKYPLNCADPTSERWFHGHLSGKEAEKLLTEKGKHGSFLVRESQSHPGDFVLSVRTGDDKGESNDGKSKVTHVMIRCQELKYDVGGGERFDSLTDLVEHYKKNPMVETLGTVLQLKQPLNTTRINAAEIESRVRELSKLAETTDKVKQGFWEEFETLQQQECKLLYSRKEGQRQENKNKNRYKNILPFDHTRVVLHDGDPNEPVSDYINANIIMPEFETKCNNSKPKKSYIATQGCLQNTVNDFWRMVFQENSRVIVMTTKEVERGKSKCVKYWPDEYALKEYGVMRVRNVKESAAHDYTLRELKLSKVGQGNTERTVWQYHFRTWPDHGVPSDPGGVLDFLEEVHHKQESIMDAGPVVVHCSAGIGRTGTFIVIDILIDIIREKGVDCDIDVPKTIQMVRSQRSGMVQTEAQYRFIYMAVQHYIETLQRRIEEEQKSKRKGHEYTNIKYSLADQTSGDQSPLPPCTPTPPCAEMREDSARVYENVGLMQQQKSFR

[1] = test system: phospho-ERK in MIA PaCa2 or H358 cells; test: Phospho-ERK assay (AlphaLisa); type: cell-based; conditions: MIA PaCa2 or H358 cells, compound incubated 1.5 hours, read-out: IC50 (p-ERK)

Structure (SMILES)	pIC50 (SHP2 (full length))	pIC50 ([1]; 1.5 h)	pIC50 [1]
C[C@@H]1OCC2(CCN(c3cnc(Sc4ccc5ncn(CCOC(F)(F)F)c(=O)c5c4Cl)cn3)CC2)[C@@H]1N [Example 96, 6-((5-((3S,4S)-4-amino-3-methyl-2-oxa-8-azaspiro[4.5]decan-8-yl)pyrazin-2-yl)thio)-5-chloro-3-(2-(trifluoromethoxy)ethyl)quinazolin-4(3H)-one]	7.00 to 8.52	> 7.35	–
C[C@@H]1OCC2(CCN(c3cnc(Sc4ccc5ncn(CCC(N)=O)c(=O)c5c4Cl)cn3)CC2)[C@@H]1N [Example 98, 3-(6-((5-((3S,4S)-4-amino-3-methyl-2-oxa-8-azaspiro[4.5]decan-8-yl)pyrazin-2-yl)thio)-5-chloro-4-oxoquinazolin-3(4H)-yl)propanamide]	7.00 to 8.52	5.82 to 7.35	–
N[C@H]1c2cccnc2CC12CCN(c1cnc(Sc3ccc4ncn(Cc5cccnc5)c(=O)c4c3Cl)cn1)CC2 [Example 106, (R)-6-((5-(5-amino-5,7-dihydrospiro[yclopenta[b]pyridine-6,4′-piperidin]-1′-yl)pyrazin-2-yl)thio)-5-chloro-(3-pyridin-3-ylmethyl)quinazolin-4(3H)-one]	7.00 to 8.52	5.82 to 7.35	–
N[C@@H]1c2cccnc2CC12CCN(c1cnc(Sc3ccc4ncn(CC5CCOC5)c(=O)c4c3Cl)cn1)CC2 (stereo partly drawn) [Example 107, 6-((5-((S)-5-amino-5,7-dihydrospiro[yclopenta[b]pyridine-6,4′-piperidin]-1′-yl)pyrazin-2-yl]thio)-5-chloro-3-((tetrahydrofuran-3-yl)methyl)quinazolin-4(3H)-one]	> 8.52	> 7.35	–
COCCn1cnc2ccc(Sc3cnc(N4CCC5(CC4)Cc4ncccc4[C@H]5N)cn3)c(Cl)c2c1=O [Example 108]	7.00 to 8.52	5.82 to 7.35	–
N[C@@H]1c2cccnc2CC12CCN(c1cnc(Sc3ccc4ncn(CCCO)c(=O)c4c3Cl)cn1)CC2 [Example 109]	> 8.52	> 7.35	–
N[C@@H]1c2cccnc2CC12CCN(c1cnc(Sc3ccc4ncn(CCCF)c(=O)c4c3Cl)cn1)CC2 [Example 110]	> 8.52	> 7.35	–
CC(O)CCn1cnc2ccc(Sc3cnc(N4CCC5(CC4)Cc4ncccc4[C@H]5N)cn3)c(Cl)c2c1=O (stereo partly drawn) [Example 111, (6-((5-((S)-5-amino-5,7-dihydrospiro[yclopenta[b]pyridine]-6,4′-piperidin]-1′-yl)pyrazin-2-yl]thio)-5-chloro-3-(3-hydroxybutyl)quinazolin-4(3H)-one]	> 8.52	> 7.35	–
CC(=O)Cn1cnc2ccc(Sc3cnc(N4CCC5(CC4)Cc4ncccc4[C@H]5N)cn3)c(Cl)c2c1=O [Example 112]	> 8.52	–	> 7.35
C[C@@H]1OCC2(CCN(c3cnc(Sc4ccc5ncn(CCC(F)(F)F)c(=O)c5c4Cl)cn3)CC2)[C@@H]1N [Example 113]	> 8.52	> 7.35	–
C[C@@H]1OCC2(CCN(c3cnc(Sc4ccc5ncn(CCN6CCOC6=O)c(=O)c5c4Cl)cn3)CC2)[C@@H]1N [Example 114]	> 8.52	> 7.35	–
CC(=O)NCCn1cnc2ccc(Sc3cnc(N4CCC5(CC4)CO[C@@H](C)[C@H]5N)cn3)c(Cl)c2c1=O [Example 115]	> 8.52	> 7.35	–
CC(C)OCCn1cnc2ccc(Sc3cnc(N4CCC5(CC4)CO[C@@H](C)[C@H]5N)cn3)c(Cl)c2c1=O [Example 116, 6-((5-(3S,4S)-4-amino-3-methyl-2-oxa-8-azaspiro[4,5]decan-8-yl)pyrazin-2-yl)thio)-5-chloro-(3-(2-isopropoxyethyl)quinazolin-4(3H)-one]	> 8.52	> 7.35	–
C[C@@H]1OCC2(CCN(c3cnc(Sc4ccc5ncn(CC6=CCOCC6)c(=O)c5c4Cl)cn3)CC2)[C@@H]1N [Example 117, 6-((5-(3S,4S)-4-amino-3-methyl-2-oxa-8-azaspiro[4,5]decan-8-yl)pyrazin-2-yl)thio)-5-chloro-(3-((3,6-dihydro-2H-pyran-4-yl)methyl)quinazolin-4(3H)-one]	7.00 to 8.52	5.82 to 7.35	–
C[C@@H]1OCC2(CCN(c3cnc(Sc4ccc5ncn(CC6CNC(=O)O6)c(=O)c5c4Cl)cn3)CC2)[C@@H]1N (stereo partly shown) [Example 118]	> 8.52	> 7.35	–

Now from value to compound, other results behind:

pIC50 (SHP2 (full length))	pIC50 ([1]; 1.5 h)	Structure (SMILES)	pIC50 [1]
> 8.52	> 7.35	COc1ccc(C)cc1Cn1cnc2ccc(Sc3cnc(N4CCC5(CC4)CO[C@@H](C)[C@H]5N)cn3)c(Cl)c2c1=O [Example 93, 6-((5-((3S,4S)-4-amino-3-methyl-2-oxa-8-azaspiro[4.5]decan-8-yl)pyrazin-2-yl)thio)-5-chloro-3-(2-methoxy-5-methylbenzyl)quinazolin-4(3H)-one]	–
> 8.52	< 5.82	COCCCn1cnc2ccc(Sc3cnc(N4CCC5(CC4)CO[C@@H](C)[C@H]5N)cn3)c(Cl)c2c1=O [Example 94, 6-((5-((3S,4S)-4-amino-3-methyl-2-oxa-8-azaspiro[4.5]decan-8-yl)pyrazin-2-yl)thio)-5-chloro-3-(3-methoxypropyl)quinazolin-4(3H)-one]	–
> 8.52	5.82 to 7.35	C[C@@H]1OCC2(CCN(c3cnc(Sc4ccc5ncn(CC(=O)N6CCCCC6)c(=O)c5c4Cl)cn3)CC2)[C@@H]1N [Example 95, 6-((5-((3S,4S)-4-amino-3-methyl-2-oxa-8-azaspiro[4.5]decan-8-yl)pyrazin-2-yl)thio)-5-chloro-3-(2-oxo-(2-piperidin-1-yl]ethyl)quinazolin-4(3H)-one]	–
> 8.52	> 7.35	C[C@@H]1OCC2(CCN(c3cnc(Sc4ccc5ncn(CC(N)=O)c(=O)c5c4Cl)cn3)CC2)[C@@H]1N [Example 97, 2-(6-((5-((3S,4S)-4-amino-3-methyl-2-oxa-8-azaspiro[4.5]decan-8-yl)pyrazin-2-yl)thio)-5-chloro-4-oxoquinazolin-3(4H)-yl)acetamide]	–
> 8.52	> 7.35	N[C@@H]1c2cccnc2CC12CCN(c1cnc(Sc3ccc4ncn(Cc5ccccc5)c(=O)c4c3Cl)cn1)CC2 [Example 102, (S)-6-((5-(5-amino-5,7-dihydrospiro[yclopenta[b]pyridine-6,4′-piperidin]-1′-yl)pyrazin-2-yl)thio)-3-benzyl-5-chloroquinazolin-4(3H)-one]	–
> 8.52	> 7.35	N[C@@H]1c2ccccc2CC12CCN(c1cnc(Sc3ccc4ncn(CC5CCOC5)c(=O)c4c3Cl)cn1)CC2 (stereo partly drawn) [Example 103, 6-((5-((S)-1-amino-1,3-dihydrospiro[indene-2,4′-piperidin]-1′-yl]pyrazin-2-yl]thio)-5-chloro-3-((tetrahydrofuran-3-yl)methyl)quinazolin-4(3H)-one]	–
> 8.52	> 7.35	N[C@H]1c2ccccc2CC12CCN(c1cnc(Sc3ccc4ncn(CC5CCOC5)c(=O)c4c3Cl)cn1)CC2 (stereo partly drawn) [Example 104, 6-((5-((R)-1-amino-1,3-dihydrospiro(indene-2,4′-piperidin]-1′-yl]pyrazin-2-yl]thio)-5-chloro-3-((tetrahydrofuran-3-yl)methyl)quinazolin-4(3H)-one]	–
> 8.52	> 7.35	N[C@@H]1c2cccnc2CC12CCN(c1cnc(Sc3ccc4ncn(Cc5cccnc5)c(=O)c4c3Cl)cn1)CC2 [Example 105, (S)-6-((5-(5-amino-5,7-dihydrospiro[yclopenta[b]pyridine-6,4′-piperidin]-1′-yl)pyrazin-2-yl)thio)-5-chloro-(3-pyridin-3-ylmethyl)quinazolin-4(3H)-one]	–
